Assay results from US8691498B2, “Methods of screening for a compound that reduces atherogenesis” (Arena Pharmaceuticals, Inc., priority 2005, dated 2014).

Assays:
[1] = tested on: GPR84 mRNA in human monocytes; experiment: GPR84 mRNA expression in primary human monocytes (QRT-PCR); assay type: cell-based; settings: overnight
Source text: Peripheral blood leukocytes were separated from erythrocytes by sedimentation in a dextran containing saline solution. The leukocytes were washed, and mononuclear cells were isolated on a Ficoll density gradient. Peripheral blood mononuclear cells were then washed and negatively selected using a MACS® monocyte isolation kit II (Miltenyi Biotec, Auburn, Calif.) and LS MACS® cell separation columns according to manufacturer's instructions. Freshly isolated monocytes were then resuspended in culture medium alone or culture medium supplemented with TNFα (10 ng/ml) or IFNγ (10 or 100 ng/ml) and allowed to adhere to wells precoated with vitronectin. Cultures were harvested at the indicated times. GPR84 TaqMan analysis was performed essentially as described in Part A of Example 15, infra. Multiple replicates were obtained from different individual donors. Data are expressed as the mean of the ratio of the GPR84 signal to the HS9 (Human ribosomal protein S9, housekeeping gene) signal±SEM.

GPR88 = GPR88 (Homo sapiens, UniProt Q9GZN0); experiment: EC50 at GPR88 (selectivity, data not shown); assay type: cell-based; settings: for selectivity for GPR84 over GPR88: concluded from EC50 at GPR84 and GPR88; for EC50: not shown
Sequence of GPR88 (Q9GZN0 whole entry): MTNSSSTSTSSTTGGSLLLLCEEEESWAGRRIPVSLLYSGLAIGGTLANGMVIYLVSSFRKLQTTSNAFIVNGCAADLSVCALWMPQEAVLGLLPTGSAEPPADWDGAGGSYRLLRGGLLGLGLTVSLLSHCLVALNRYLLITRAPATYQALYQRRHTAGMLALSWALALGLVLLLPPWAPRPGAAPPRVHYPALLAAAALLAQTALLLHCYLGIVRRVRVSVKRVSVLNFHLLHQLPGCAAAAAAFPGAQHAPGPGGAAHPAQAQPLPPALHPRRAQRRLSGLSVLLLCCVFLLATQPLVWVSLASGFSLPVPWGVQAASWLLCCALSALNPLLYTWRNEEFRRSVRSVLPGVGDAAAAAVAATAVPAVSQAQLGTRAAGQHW

GPR84 [2] = molecular target: T1, GPR84 (Homo sapiens, UniProt Q9NQS5); experiment: Melanophore pigment aggregation assay, melanophores transiently transfected with human GPR84; assay type: cell-based; parameters: Full-Length Cloning of Endogenous Human GPR84; expressed in transfected cells; host or cells: melanophores (transient transfection); settings: representative melanophore assay, one hour incubation
T1 sequence (Q9NQS5 whole entry): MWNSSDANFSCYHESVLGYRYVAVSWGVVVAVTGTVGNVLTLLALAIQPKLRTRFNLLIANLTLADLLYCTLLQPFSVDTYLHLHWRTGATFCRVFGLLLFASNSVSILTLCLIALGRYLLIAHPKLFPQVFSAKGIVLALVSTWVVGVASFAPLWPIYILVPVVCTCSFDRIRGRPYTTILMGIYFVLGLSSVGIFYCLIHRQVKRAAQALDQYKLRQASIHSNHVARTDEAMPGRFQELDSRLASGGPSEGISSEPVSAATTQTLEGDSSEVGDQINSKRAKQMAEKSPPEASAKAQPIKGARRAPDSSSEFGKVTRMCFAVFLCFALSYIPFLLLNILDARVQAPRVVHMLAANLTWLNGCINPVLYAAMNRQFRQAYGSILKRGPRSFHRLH
Source text: Melatonin activates an endogenous Gi-coupled receptor in the melanophores and causes them to aggregate their pigment. […] If the receptor were either a Gs or Gq coupled receptor, then the melatonin-aggregated melanophores would undergo pigment dispersion. In contrast, if the receptor was a Gi-coupled receptor, then the pigment-dispersed cells would be expected to undergo a dose-dependent pigment aggregation.

GPR84 [3] = molecular target: T1, GPR84; experiment: Cyclase (cAMP Flashplate) assay in 293 cells transfected with GPR84; assay type: cell-based; settings: 1 hr treatment
Source text: Thyroid-stimulating hormone (TSH, or thyrotropin) receptor (TSHR) causes the accumulation of intracellular cAMP on activation by its ligand TSH. An effective technique for measuring the decrease in production of cAMP corresponding to activation of a Gi-coupled receptor is to co-transfect TSHR with the Gi-coupled receptor and to carry out the assay in the presence of TSH to raise the level of basal cAMP, whereby TSHR acts as a “signal window enhancer.” Such an approach was used here. Cyclase assay of GPR84 activity was carried out. 293 cells were transfected with either vector alone or vector containing polynucleotide encoding GPR84.

[4] = tested on: TNFα secretion by human macrophage; experiment: TNFα secretion by human macrophage (ELISA); assay type: cell-based; settings: 10 μM for 24 hrs, absence or presence of LPS
Procedure: Human peripheral blood monocytes were isolated from buffy coat by dextran and ficoll purification. Monocytes were then purified using a monocyte isolation kit from Miltenyi Biotec. Monocytes were cultured for 7 days with 10 ng/ml GM-CSF to derive macrophage cells. […] Vehicle was dimethyl sulfoxide (DMSO); the final concentration of DMSO in the culture was 0.1% (v/v). Cells were then stimulated with the indicated concentrations of LPS for 24 hours. Supernatants were collected and TNFα levels were assayed using a human specific TNFα ELISA kit from Biosource.

GPR84 [5] = molecular target: T1, GPR84; experiment: IP3 assay in 293 cells transfected with GPR84, with or without Gq(del)/Gi chimeric G protein; assay type: cell-based; parameters: expressed in transfected cells; host or cells: 293 cells comprising or not comprising Gq(del)/Gi; settings: 293 cells comprising Gq(del)/Gi chimeric G protein, 10 μM, 3 hrs
Procedure: IP3 Assay of GPR84 activity was carried out. 293 cells were transfected with either vector alone or vector containing polynucleotide encoding GPR84. […] 24 hrs after transfection, cells were plated into 96 well plates, labeled overnight with ^3H-myoinositol.

[6] = tested on: IL-8 mRNA in human macrophage; experiment: Steady-state IL-8 mRNA level in human macrophage (microarray); assay type: cell-based; settings: 10 μM, 24 hours
Procedure: (§1) Human peripheral blood monocytes were isolated from buffy coat by dextran and ficoll purification. Monocytes were then purified using a monocyte isolation kit from Miltenyi Biotec. Monocytes were cultured for 7 days with 10 ng/ml GM-CSF to derive macrophage cells. […] MCP-1 and IL-8 steady-state mRNA levels were assessed by microarray analysis. Vehicle was dimethyl sulfoxide (DMSO); the final concentration of DMSO in the culture was 0.1% (v/v). Expression levels are the average and SD of two replicates.

[7] = tested on: TNFα secretion by mouse macrophage cell line RAW; experiment: TNFα secretion by mouse macrophage cell line RAW (ELISA); assay type: cell-based; settings: RAW cells, 1 μM for 24 hours, absence or presence of LPS
Procedure: RAW cells were cultured to subconfluency. […] Vehicle was dimethyl sulfoxide (DMSO); the final concentration of DMSO in the culture was 0.1% (v/v). Cells were then stimulated with the indicated concentrations of LPS for 24 hours. Supernatants were collected and TNFα levels were assayed using a mouse specific TNFα ELISA kit from Biosource.

[8] = tested on: MCP-1 mRNA in human macrophage; experiment: Steady-state MCP-1 mRNA level in human macrophage (microarray); assay type: cell-based; settings: 10 μM, 24 hours
Procedure: as §1

[9] = tested on: ABCA1 mRNA in human macrophage; experiment: Steady-state ABCA1 mRNA level in human macrophage (TaqMan); assay type: cell-based; settings: human monocyte-derived macrophage, 24 hours
Procedure: Macrophages were derived from monocytes as previously indicated. […] Vehicle was dimethyl sulfoxide (DMSO); the final concentration of DMSO in the culture was 0.1% (v/v). Total RNA was extracted from the cells and analyzed by TaqMan analysis as previously indicated to assess steady-state ABCA1 mRNA level. Data are the average and SD of three replicates. The qPCR reactions were prepared from the cDNA using the Bio-Rad qPCR kit, following the manufacturer's protocol. The qPCR reactions were performed using the ABI Prism 7900HT machine with the following temperatures and times: 50° C.—2 min, 95° C.—10 min followed by 40 cycles of 95° C.—15 sec and 60° C.—1 min.

GPR84 [10] = molecular target: T1, GPR84; experiment: GTPγS binding assay with membranes from GPR84 transfected CHO-KI cells; assay type: biochemical; settings: not shown
Procedure: GTPγS assay of GPR84 activity was carried out. Membranes prepared from GPR84 transfected CHO-KI cells were dissolved in binding buffer (20 mM HEPES, pH 7.4, 100 mM NaCl, 10 mM MgCl2) and homogenized briefly using a polytron. Membrane protein concentration was determined by Bradford assay and the membranes were diluted to 0.4 mg/ml in binding buffer. […] Binding was allowed to proceed for one hour before centrifuging the plates at room temperature to pellet the membrane and subsequent counting in a TopCount scintillation counter.

Compound: IFNγ: proinflammatory cytokine interferon gamma
- GPR84 mRNA expression ([1]; primary monocytes, 10 or 100 ng/ml): dose-dependent increase

Compound: CCCCC/C=C/C/C=C/C=C/C=C/[C@@H](O)[C@@H](O)CCCC(=O)O [Compound 3, 5S,6R-Dihydroxy-icosa-7,9,11,14-tetraenoic acid]
- selectivity for GPR84 over GPR88 (GPR88): selective GPR84 agonist
- EC50 (GPR88): > 10000 nM
- EC50 (GPR84 [2]): 30.8 nM

Compound: TNFα
- GPR84 mRNA expression ([1]; primary human monocytes, 10 ng/ml): significant increase

Compound: CCCCCCCCCCCC1=C(O)C(=O)C=C(O)C1=O [Compound 1, 2,5-Dihydroxy-3-undecyl-[1,4]benzoquinone]
- level of intracellular cAMP (GPR84 [3]): decrease
- TNFα secretion [4]: no effect
- level of intracellular IP accumulation (GPR84 [5]): increase
- steady-state level of IL-8 mRNA [6]: increase
- TNFα secretion [7]: no effect
- EC50 (GPR88): > 100000 nM
- steady-state level of MCP-1 mRNA [8]: decrease
- steady-state level of ABCA1 mRNA [9]: increase

Compound: CCCCCC#CCC#CCC#CCC#CCCCC(=O)O [Compound 2, Icosa-5,8,11,14-tetraynoic acid]
- selectivity for GPR84 over GPR88 (GPR88): selective GPR84 agonist
- EC50 (GPR88): > 10000 nM
- EC50 (GPR84 [2]): 48.2 nM

Compound: Pertussis toxin
- effect on stimulation of GTPγS binding to membrane by Compound 1 (GPR84 [10]): inhibit
